This note sets out measurements from ChEMBL document CHEMBL1147507, “Preliminary in vitro studies on two potent, water-soluble trimethoprim analogues with exceptional species selectivity against dihydrofolate reductase from Pneumocystis carinii and Mycobacterium avium” (Bioorg Med Chem Lett, 2004).

A short description of test [1]: Selectivity index was determined as ratio of IC50 against rat DHFR to that of IC50 against Mycobacterium avium DHFR.
Test [2] is described as follows: Selectivity index was determined as ratio of IC50 against rat DHFR to that of IC50 against Pneumocystis carinii DHFR.
Test [3] is described as follows: Selectivity index was determined as ratio of IC50 against rat DHFR to that of IC50 against Toxoplasma gondii DHFR.
The target in test [4] is T1, Dihydrofolate reductase (Pneumocystis carinii, UniProt P16184).
T1 sequence (P16184 whole entry): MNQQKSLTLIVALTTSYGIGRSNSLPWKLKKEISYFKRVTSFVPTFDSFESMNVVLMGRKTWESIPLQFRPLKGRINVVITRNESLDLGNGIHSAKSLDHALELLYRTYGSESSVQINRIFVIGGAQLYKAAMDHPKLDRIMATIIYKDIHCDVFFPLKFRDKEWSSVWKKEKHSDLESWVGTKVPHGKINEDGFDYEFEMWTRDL
Description: Inhibitory concentration against Pneumocystis carinii dihydrofolate reductase

The target of test [5] is T2, Dihydrofolate reductase (Rattus norvegicus, UniProt Q920D2).
T2 sequence (Q920D2 whole entry): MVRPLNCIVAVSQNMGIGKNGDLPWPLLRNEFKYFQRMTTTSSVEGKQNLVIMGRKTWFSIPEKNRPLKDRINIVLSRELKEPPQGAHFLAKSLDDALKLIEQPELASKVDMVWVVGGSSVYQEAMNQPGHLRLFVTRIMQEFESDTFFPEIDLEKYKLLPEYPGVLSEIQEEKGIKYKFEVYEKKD
Description: Inhibitory activity against rat dihydrofolate reductase

Test [6] addresses T3, Bifunctional dihydrofolate reductase-thymidylate synthase (Toxoplasma gondii, UniProt Q07422).
T3 sequence (Q07422 whole entry): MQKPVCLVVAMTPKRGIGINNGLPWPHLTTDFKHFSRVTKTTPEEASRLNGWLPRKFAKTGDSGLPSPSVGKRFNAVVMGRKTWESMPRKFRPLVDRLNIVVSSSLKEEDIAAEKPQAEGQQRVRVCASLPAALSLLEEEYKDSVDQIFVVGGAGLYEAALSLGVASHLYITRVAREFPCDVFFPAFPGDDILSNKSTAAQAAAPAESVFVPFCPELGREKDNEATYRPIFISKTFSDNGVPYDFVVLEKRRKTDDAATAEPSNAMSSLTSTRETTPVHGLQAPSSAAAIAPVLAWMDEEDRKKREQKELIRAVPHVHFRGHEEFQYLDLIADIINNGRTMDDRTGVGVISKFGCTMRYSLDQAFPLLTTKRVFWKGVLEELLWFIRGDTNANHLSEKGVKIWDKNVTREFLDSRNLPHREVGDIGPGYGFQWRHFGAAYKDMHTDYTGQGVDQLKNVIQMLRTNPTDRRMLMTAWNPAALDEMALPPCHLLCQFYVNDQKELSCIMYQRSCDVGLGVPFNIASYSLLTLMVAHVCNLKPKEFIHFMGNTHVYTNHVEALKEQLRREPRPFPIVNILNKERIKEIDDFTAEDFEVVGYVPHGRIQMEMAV
Description: Inhibitory concentration against Toxoplasma gondii dihydrofolate reductase

Test [7] concerns the target T4, Dihydrofolate reductase (Mycobacterium avium, UniProt O30463).
T4 sequence (O30463 whole entry): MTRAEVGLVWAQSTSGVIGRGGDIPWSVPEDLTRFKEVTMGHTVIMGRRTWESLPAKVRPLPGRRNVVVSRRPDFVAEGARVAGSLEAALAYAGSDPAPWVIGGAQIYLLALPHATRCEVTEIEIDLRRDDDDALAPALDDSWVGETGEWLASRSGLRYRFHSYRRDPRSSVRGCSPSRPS
Description: Inhibitory concentration against Mycobacterium avium dihydrofolate reductase

By IC50 is commonly meant the concentration at which inhibition is half-maximal. The low end stands for greater potency, the high end for weaker potency. For `COc1cc(Cc2cnc(N)nc2N)cc(C#Cc2ccc(C(=O)O)cc2)c1OC`, the Ratio turned out to be 11000 in test [1], 73 in test [2] and 210 in test [3]. In addition, the IC50 at Dihydrofolate reductase [4] came out at 1200 nM; against Dihydrofolate reductase [5], 88000 nM; in test [6], 420 nM; against Dihydrofolate reductase [7], 8.2 nM.

Take `COc1cc(Cc2cnc(N)nc2N)cc(C#CCCCC(=O)O)c1OC`: at Dihydrofolate reductase [5], the IC50 was determined as 5000 nM.

`COc1ccc(C#Cc2ccc(C(=O)O)cc2)cc1Cc1cnc(N)nc1N`: the Ratio in test [1] came out at 2200; in test [2], 6.3; in test [3], 24.
